The assay deals with T1, Glucocorticoid Receptor (GR) (Homo sapiens, UniProt P04150).
T1 construct: purchased Invitrogen P2893
T1 sequence (P04150 1-777): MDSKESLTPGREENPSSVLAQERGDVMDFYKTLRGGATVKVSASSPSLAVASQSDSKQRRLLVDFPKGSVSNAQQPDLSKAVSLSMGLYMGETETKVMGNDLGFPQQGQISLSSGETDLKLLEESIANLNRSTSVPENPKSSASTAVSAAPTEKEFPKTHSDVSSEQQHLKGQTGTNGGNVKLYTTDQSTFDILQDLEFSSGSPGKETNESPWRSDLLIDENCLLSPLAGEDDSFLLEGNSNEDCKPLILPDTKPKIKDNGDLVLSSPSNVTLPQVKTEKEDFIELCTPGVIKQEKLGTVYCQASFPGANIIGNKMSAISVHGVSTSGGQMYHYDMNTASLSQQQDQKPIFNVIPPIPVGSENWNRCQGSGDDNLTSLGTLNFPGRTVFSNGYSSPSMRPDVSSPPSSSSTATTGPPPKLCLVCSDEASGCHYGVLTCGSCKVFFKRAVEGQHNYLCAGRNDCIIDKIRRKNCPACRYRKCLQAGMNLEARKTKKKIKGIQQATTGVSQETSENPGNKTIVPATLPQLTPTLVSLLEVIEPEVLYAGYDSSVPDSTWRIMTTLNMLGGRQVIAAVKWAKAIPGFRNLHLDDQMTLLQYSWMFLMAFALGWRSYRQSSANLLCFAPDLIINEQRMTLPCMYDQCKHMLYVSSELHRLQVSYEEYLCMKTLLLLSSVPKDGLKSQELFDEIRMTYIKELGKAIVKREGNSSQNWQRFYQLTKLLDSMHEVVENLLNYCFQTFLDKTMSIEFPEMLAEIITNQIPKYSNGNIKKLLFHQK
Nature of the assay: GR Florescence Polarization Assay (PolarScreen Glucocorticoid Receptor Competitor Assay, Red). Particulars: Fluorescense polarization binding ranges; competition with fluorescent glucocorticoid, incubated overnight at 4° C. A digest of the protocol: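 Competitive fluorescence polarization using fluorescent glucocorticoid tracer and human GR in kit buffer. Compounds serially diluted 1:4 in DMSO, incubated with tracer and GR overnight at 4 °C before polarization read.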

Our source for the IC50 values is patent US20120238549A1, “Nuclear Hormone Receptor Modulators” (ABBOTT LABORATORIES, priority 2011, published 2012).

Molecules are shown by their SMILES. Where only a bound is given, the exact number is not on record here.

On to `Cc1ncccc1NC(=O)c1ccc2c(c1)CCC[C@@H]1C[C@](C)(O)CC[C@@]21Cc1ccccc1.Cc1ncccc1NC(=O)c1ccc2c(c1)CCC[C@H]1C[C@@](C)(O)CC[C@]21Cc1ccccc1` [Example 9, (7aR,9R,11aS)-11a-Benzyl-9-hydroxy-9-methyl-6,7,7a,8,9,10,11,11a-octahydro-5H-dibenzo[a,c]cycloheptene-3-carboxylic acid (2-methyl-pyridin-3-yl)-amide; compound with (7aS,9S,11aR)-11a-benzyl-9-hydroxy-9-methyl-6,7,7a,8,9,10,11,11a-octahydro-5H-dibenzo[a,c]cycloheptene-3-carboxylic acid (2-methyl-pyridin-3-yl)-amide], for which the half-maximal inhibitory concentration (IC50) – broadly, the concentration needed to halve the response being measured – was less than 100 nM. To `CCC[C@]1(O)CC[C@]2(CC)c3ccc(C(=O)Nc4cccnc4C)cc3CCC[C@@H]2C1` (single isomer, unassigned) [Example 44] belongs 100 to 1000 nM; to `CCC[C@]1(O)CC[C@]2(CC)c3ccc(C(=O)Nc4cccnc4C)cc3COC[C@@H]2C1` (single isomer, unassigned) [Example 137], 1000 to 10000 nM. In the case of `CC#C[C@]1(O)CC[C@@]2(Cc3ccccc3)c3ccc(O)cc3CCC[C@H]2C1` (racemic) [Example 28, (3S,4aS,11bS)-11b-Benzyl-3-prop-1-ynyl-2,3,4,4a,5,6,7,11b-octahydro-1H-dibenzo[a,c]cycloheptene-3,9-diol; compound with (3R,4aR,11bR)-11b-benzyl-3-prop-1-ynyl-2,3,4,4a,5,6,7,11b-octahydro-1H-dibenzo[a,c]cycloheptene-3,9-diol], the concentration for half-maximal inhibition (IC50) fell in the range of 100 to 1000 nM.

Compound `CCC[C@@]1(O)CC[C@@]2(CC)c3ccc(C(=O)Nc4cccnc4C)cc3COC[C@H]2C1` (single isomer, unassigned) [Example 138] gave a concentration for half-maximal inhibition (IC50) of less than 100 nM. The figure for `CC[C@]12CC[C@@](O)(CC(C)C)C[C@H]1CCCc1cc(C(=O)Nc3cccnc3C)ccc12` [Example 48] is 100 to 1000 nM; for `CCC[C@@]1(O)CC[C@@]2(CC3CC3)c3ccc(C(=O)Nc4cccnc4C)cc3CCC[C@H]2C1` (racemic) [Example 150, (7aR,9R,11aS)-11a-Cyclopropylmethyl-9-hydroxy-9-propyl-6,7,7a,8,9,10,11,11a-octahydro-5H-dibenzo[a,c]cycloheptene-3-carboxylic acid (2-methyl-pyridin-3-yl)-amide; compound with (7aS,9S,11aR)-11a-cyclopropylmethyl-9-hydroxy-9-propyl-6,7,7a,8,9,10,11,11a-octahydro-5H-dibenzo[a,c]cycloheptene-3-carboxylic acid (2-methyl-pyridin-3-yl)-amide] it is less than 100 nM; for `CCC[C@@]12CC[C@@](O)(Cc3ccccc3)C[C@@H]1CCCc1cc(C(=O)Nc3cccnc3C)ccc12.CCC[C@]12CC[C@](O)(Cc3ccccc3)C[C@H]1CCCc1cc(C(=O)Nc3cccnc3C)ccc12` [Example 35] it is 1000 to 10000 nM. To `CC[C@@]1(O)CC[C@@]2(Cc3ccccc3)c3ccc(C(=O)Nc4cccnc4C)cc3C(=O)CC[C@H]2C1` (racemic) [Example 23, (7aS,9R,11aS)-11a-Benzyl-9-ethyl-9-hydroxy-5-oxo-6,7,7a,8,9,10,11,11a-octahydro-5H-dibenzo[a,c]cycloheptene-3-carboxylic acid (2-methyl-pyridin-3-yl)-amide; compound with (7aR,9S,11aR)-11a-benzyl-9-ethyl-9-hydroxy-5-oxo-6,7,7a,8,9,10,11,11a-octahydro-5H-dibenzo[a,c]cycloheptene-3-carboxylic acid (2-methyl-pyridin-3-yl)-amide] belongs less than 100 nM. Compound `Cc1ncccc1NC(=O)c1ccc2c(c1)CCC[C@H]1C[C@@](O)(CC#N)CC[C@@]21Cc1ccccc1` [Example 66] gave a concentration for half-maximal inhibition (IC50) of less than 100 nM. With `CC[C@@]1(O)CC[C@@]2(Cc3ccccc3)c3ccc(C(=O)Nc4ccc(-c5ccn[nH]5)nc4C)cc3CCC[C@H]2C1` [Example 87, (7aS,9R,11aS)-11a-Benzyl-9-ethyl-9-hydroxy-6,7,7a,8,9,10,11,11a-octahydro-5H-dibenzo[a,c]cycloheptene-3-carboxylic acid [2-methyl-6-(2H-pyrazol-3-yl)-pyridin-3-yl]-amide], the half-maximal inhibitory concentration (IC50) was less than 100 nM. `O=C1CC[C@@]2(Cc3ccccc3)c3ccc(O)cc3CCC[C@@H]2C1.O=C1CC[C@]2(Cc3ccccc3)c3ccc(O)cc3CCC[C@H]2C1` [Example 5, (4aR,11bS)-11b-benzyl-9-hydroxy-1,2,4,4a,5,6,7,11b-octahydro-dibenzo[a,c]cyclohepten-3-one; compound with (4aS,11bR)-11b-benzyl-9-hydroxy-1,2,4,4a,5,6,7,11b-octahydro-dibenzo[a,c]cyclohepten-3-one] had an IC50 of 100 to 1000 nM.

`Cc1ncccc1NC(=O)c1ccc2c(c1)CCC[C@H]1C[C@@](O)(CO)CC[C@@]21Cc1ccccc1` (racemic) [Example 104] showed a 50% inhibitory concentration (IC50) of 100 to 1000 nM. As for `CC[C@@]1(O)CC[C@@]2(Cc3ccccc3)c3cc(C(=O)Nc4cccnc4C)cn3CCC[C@H]2C1` (racemic) [Example 144, (7aS,9R,11aS)-11a-Benzyl-9-ethyl-9-hydroxy-N-(2-methylpyridin-3-yl)-6,7,7a,8,9,10,11,11a-octahydro-5H-benzo[c]pyrrolo[1,2-a]azepine-2-carboxamide; compound with (7aR,9S,11aR)-11a-benzyl-9-ethyl-9-hydroxy-N-(2-methylpyridin-3-yl)-6,7,7a,8,9,10,11,11a-octahydro-5H-benzo[c]pyrrolo[1,2-a]azepine-2-carboxamide], the IC50 fell in the range of 1000 to 10000 nM. To `Cc1ncccc1NC(=O)c1ccc2c(c1)CCC[C@H]1C[C@@](O)(CC(C)C)CC[C@@]21CC(F)(F)F` (racemic) [Example 63, (7aS,9S,11aS)-9-Hydroxy-9-isobutyl-11a-(2,2,2-trifluoro-ethyl)-6,7,7a,8,9,10,11,11a-octahydro-5H-dibenzo[a,c]cycloheptene-3-carboxylic acid (2-methyl-pyridin-3-yl)-amide; compound with (7aR,9R,11aR)-9-hydroxy-9-isobutyl-11a-(2,2,2-trifluoro-ethyl)-6,7,7a,8,9,10,11,11a-octahydro-5H-dibenzo[a,c]cycloheptene-3-carboxylic acid (2-methyl-pyridin-3-yl)-amide] belongs less than 100 nM; to `CCC[C@]1(O)CC[C@]2(CC)c3ccc(C(=O)Nc4cccnc4C)cc3C(=O)CC[C@@H]2C1` (single isomer, unassigned) [Example 62], less than 100 nM. As to `CC[C@@]1(O)CC[C@@]2(Cc3ccccc3)c3ccc(C(=O)Nc4ccc(-c5cn[nH]c5)nc4C)cc3CCC[C@H]2C1` [Example 88], the concentration for half-maximal inhibition (IC50) was less than 100 nM. To `CC[C@]12CC[C@@](O)(c3ccccc3)C[C@H]1CCCc1cc(C(=O)Nc3cccnc3C)ccc12` (single isomer, unassigned) [Example 123] belongs 100 to 1000 nM; to `Cc1ncccc1NC(=O)c1ccc2c(c1)CCC[C@H]1C[C@@](O)(COC3CCOCC3)CC[C@@]21Cc1ccccc1` (racemic) [Example 102], less than 100 nM.
